The results in this text go back to patent US8017612B2, “Piperazine compound and use thereof as a HCV polymerase inhibitor” (priority 2006, dated 2011).

The IC50 is the concentration that inhibits the measured activity by half.

Assay [1] addresses T1, HCV polymerase (NS5B) type 1b (Hepatitis C virus genotype 1b, UniProt P26663).
T1 construct: a region encoding NS5B (J Virol 1991 March, 65(3), 1105-13, 544 amino acids after deletion of 47 amino acids on the C-terminal); 6xHis (C); made in house; host or cells: Escherichia coli
The experiment in a line: Assay of enzyme (HCV polymerase) inhibitory activity, type 1b enzyme. The format is biochemical, HCV BK strain (type 1b). The method, boiled down: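 IC50 derived from [3H]UTP incorporation into TCA-insoluble RNA, compared with and without test compound. Reaction (25 °C, 60 min, Tris pH 7.5, 5 mM MgCl2): E. coli-expressed 1b NS5B Δ47 with His tag at 0.5 μg/ml, 5 μg/ml run-off substrate RNA, ATP/GTP/CTP 50 μM, UTP 2 μM.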

Assay [2] addresses T2, HCV polymerase (NS5B) type 1a (Hepatitis C virus genotype 1a, UniProt P26664).
T2 construct: made in house; host or cells: Escherichia coli (by the 'similar method' of the 1b enzyme)
As to the kind of experiment: Assay of enzyme (HCV polymerase) inhibitory activity, type 1a enzyme. It counts as biochemical, HCV type 1a (cloned from the blood of patients). Put shortly:
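Reactions ran 60 min at 25° C in 20 mM Tris-HCl pH 7.5, 5 mM MgCl2, 50 mM NaCl, holding genotype 1a NS5B (1.5 μg/ml, Δ47 C-terminus, 6His), substrate RNA 5 μg/ml, UTP 2 μM with tritiated UTP and other NTPs 50 μM. IC50 derived from incorporated radiolabel in filter-trapped RNA relative to uninhibited reaction.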

Setting [3] is: HCV polymerase inhibitory activity IC50, 1b, type 1b enzyme.
[4] abbreviates: HCV polymerase inhibitory activity IC50, 1a, type 1a enzyme.
The mark [5] stands for this setting: HCV polymerase inhibitory activity (IC50), 1b, type 1b enzyme 0.5 μg/ml, 25° C., 60 min.
Where [6] appears, read: HCV polymerase inhibitory activity (IC50), 1a, type 1a enzyme 1.5 μg/ml, 25° C., 60 min.

Turning to `O=C(NCc1ccc(OC(F)F)cc1)[C@H]1CN(c2nc3nc(C(F)(F)F)ncc3s2)CCN1S(=O)(=O)c1ccc(OC(F)(F)C(F)F)cc1` [Example 1015, (R)-1-[4-(1,1,2,2-tetrafluoro-ethoxy)-benzenesulfonyl]-4-(5-trifluoromethyl-thiazolo[4,5-d]pyrimidin-2-yl)-piperazine-2-carboxylic acid 4-difluoromethoxy-benzylamide], the IC50 in assay [1] (setting [3]) and in assay [2] (setting [4]) was less than 100 nM in each case.
With `O=C(NCc1ccc(OC(F)(F)F)cc1)[C@H]1CN(c2nc3nc(C4CC4)ncc3s2)CCN1S(=O)(=O)c1ccc(OC(F)(F)F)cc1F` [Example 1110, (R)-4-(5-cyclopropyl-thiazolo[4,5-d]pyrimidin-2-yl)-1-(2-fluoro-4-trifluoromethoxy-benzenesulfonyl)-piperazine-2-carboxylic acid 4-trifluoromethoxy-benzylamide], the IC50 in assay [1] (setting [3]) and in assay [2] (setting [4]) was less than 100 nM each time.
For `CC(C)c1ccc(CNC(=O)[C@H]2CN(c3cnc(C(=O)O)cn3)CCN2S(=O)(=O)c2ccc(OC(F)(F)F)cc2)cn1` [Example 408, (R)-3-[(6-isopropyl-pyridin-3-ylmethyl)-carbamoyl]-4-(4-trifluoromethoxy-benzenesulfonyl)-3,4,5,6-tetrahydro-2H-[1,2′]bipyrazinyl-5′-carboxylic acid], the IC50 in assay [1] (setting [5]) and in assay [2] (setting [6]) was less than 100 nM in each case.
`CCC(F)(F)c1ccc(CNC(=O)[C@H]2CN(c3nc(C)ns3)CCN2S(=O)(=O)c2ccc(OC(F)(F)F)cc2)cc1` [Example 576, (R)-4-(3-methyl-[1,2,4]thiadiazol-5-yl)-1-(4-trifluoromethoxy-benzenesulfonyl)-piperazine-2-carboxylic acid 4-(1,1-difluoro-propyl)-benzylamide]: the IC50 in assay [1] (setting [5]) and in assay [2] (setting [6]) was less than 100 nM each time.
As for `CCCc1ccc(CNC(=O)[C@H]2CN(c3n[nH]c(=O)s3)CCN2S(=O)(=O)c2ccc(OC(F)(F)F)cc2)cc1` [Example 516, (R)-4-(5-oxo-4,5-dihydro-[1,3,4]thiadiazol-2-yl)-1-(4-trifluoromethoxy-benzenesulfonyl)-piperazine-2-carboxylic acid 4-propyl-benzylamide], the IC50 in assay [1] (setting [5]) and in assay [2] (setting [6]) was less than 100 nM each time.
Turning to `CC(=O)N1CCN(S(=O)(=O)c2ccc3c(c2)CCCCC3)[C@@H](C(=O)NCc2ccc(C(C)C)cc2)C1` [Example 264, (R)-4-acetyl-1-(6,7,8,9-tetrahydro-5H-benzocycloheptene-2-sulfonyl)-piperazine-2-carboxylic acid 4-isopropyl-benzylamide], the 50% inhibitory concentration (IC50) in assay [1] (setting [5]) and in assay [2] (setting [6]) was less than 100 nM throughout.
On to `O=C(NCc1ccc(-c2ccccc2)cc1)[C@H]1CN(c2cnc3cncnc3n2)CCN1S(=O)(=O)c1ccc(OC(F)(F)F)cc1` [Example 663, (R)-4-pteridin-7-yl-1-(4-trifluoromethoxy-benzenesulfonyl)-piperazine-2-carboxylic acid (biphenyl-4-ylmethyl)-amide], for which the 50% inhibitory concentration (IC50) in assay [1] (setting [3]) and in assay [2] (setting [4]) was less than 100 nM throughout.
In the case of `CC(C)c1ccc(CNC(=O)[C@H]2CN(c3ncc(C(=O)O)s3)CCN2S(=O)(=O)c2ccc(C(F)(F)F)cc2)cc1` [Example 315, 2-[(R)-3-(4-isopropyl-benzylcarbamoyl)-4-(4-trifluoromethyl-benzenesulfonyl)-piperazin-1-yl]-thiazole-5-carboxylic acid], the results for the IC50 in assay [1] (setting [5]) and in assay [2] (setting [6]) were less than 100 nM and 100 to 1000 nM, respectively.
As to `O=C(NCc1ccc(OC(F)(F)F)cc1)[C@H]1CN(C(=O)Nc2nnc(Br)s2)CCN1S(=O)(=O)c1ccc(OC(F)(F)F)cc1` [Example 936, (R)-4-(4-trifluoromethoxy-benzenesulfonyl)-piperazine-1,3-dicarboxylic acid 1-[(5-bromo-[1,3,4]thiadiazol-2-yl)-amide] 3-(4-trifluoromethoxy-benzylamide)], the IC50 in assay [1] (setting [3]) and in assay [2] (setting [4]) was greater than 1000 nM each time.
